Measured values taken from US9221827B2, “Antimicrobial compounds and methods of making and using the same” (Melinta Therapeutics, Inc., priority 2011, dated 2015).

Tested on: Escherichia coli strain ATCC25922
Assay: standard microdilution assay to determine minimum inhibitory concentrations (MICs)
Format: cell-based
Conditions: Escherichia coli strain ATCC25922, standard microdilution assay
Outline: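 MICs come from CLSI-guided microdilution in 100 μl, run alongside reference-strain performance standards. Values appear as "+" or "−" relative to 16 micrograms/ml, with "N/A" marking missing data.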

Q: For `CC(NCCCNC(=N)N)c1ccc(-n2cc3cc(-c4cc(OC(F)(F)F)cc(C5CCC(CN)O5)c4)[nH]c3nc2=O)cc1` (stereo not shown) [Compound 436], which “E. coli ATCC25922 MIC” value is on record?
A: + (a “+” indicates that the compound has an MIC value of 16 micrograms/ml or less)

Q: `N=C(N)NCCCNCc1ccc(-n2cc3cc(-c4cc(OC(F)(F)F)cc(C5CCC(CN)O5)c4)[nH]c3nc2=O)cc1` (stereo not shown) [Compound 437] was tested. Which “E. coli ATCC25922 MIC” value did it give?
A: + (a “+” indicates that the compound has an MIC value of 16 micrograms/ml or less)

Q: For `CC(NCCCNC(=N)N)c1ccc(-n2cc3cc(-c4cc(OC(F)(F)F)cc(C5CCC(CN)O5)c4)[nH]c3nc2=O)cc1` (stereo not shown) [Compound 438], which “E. coli ATCC25922 MIC” value is on record?
A: + (a “+” indicates that the compound has an MIC value of 16 micrograms/ml or less)

Q: Which “E. coli ATCC25922 MIC” value does the source give for `C[C@H](N)CCCc1cc(-c2cc3cn(-c4ccc(CNCCCNC(=N)N)cc4)c(=O)nc3[nH]2)cc(C(C)(C)C)c1` [Compound 439] here?
A: + (a “+” indicates that the compound has an MIC value of 16 micrograms/ml or less)

Q: For `C[C@H](N)CCCc1cc2c(c(-c3cc4cn(-c5ccc([C@H](C)NCCCNC(=N)N)cc5)c(=O)nc4[nH]3)c1)COC2` [Compound 441], which “E. coli ATCC25922 MIC” value is on record?
A: + (a “+” indicates that the compound has an MIC value of 16 micrograms/ml or less)

Q: For `C[C@H](N)CCCc1cc2c(c(-c3cc4cn(-c5ccc(CNCCCNC(=N)N)cc5)c(=O)nc4[nH]3)c1)COC2` [Compound 442], which “E. coli ATCC25922 MIC” value is on record?
A: + (a “+” indicates that the compound has an MIC value of 16 micrograms/ml or less)

Q: How did the “E. coli ATCC25922 MIC” value turn out when `C[C@H](N)CCCc1cc(-c2cc3cn(-c4ccc([C@H](C)NCCCNC(=N)N)cc4)c(=O)nc3[nH]2)cc2c1COC2` [Compound 443] was run?
A: + (a “+” indicates that the compound has an MIC value of 16 micrograms/ml or less)

Q: Which “E. coli ATCC25922 MIC” value does the source give for `C[C@H](N)CCCc1cc(-c2cc3cn(-c4ccc(CNCCCNC(=N)N)cc4)c(=O)nc3[nH]2)cc2c1COC2` [Compound 444] here?
A: + (a “+” indicates that the compound has an MIC value of 16 micrograms/ml or less)

Q: `COC[C@H](N)CCCc1cc(Cl)c(F)c(-c2cc3cn(-c4ccc(CNCCCNC(=N)N)cc4)c(=O)nc3[nH]2)c1` [Compound 445] was tested. Which “E. coli ATCC25922 MIC” value did it give?
A: + (a “+” indicates that the compound has an MIC value of 16 micrograms/ml or less)

Q: Which “E. coli ATCC25922 MIC” value does the source give for `Cc1c(-c2cc3cn(-c4ccc(CNCCCNC(=N)N)cc4)c(=O)nc3[nH]2)cc(CCC[C@H](C)N)cc1C(C)C` [Compound 446] here?
A: + (a “+” indicates that the compound has an MIC value of 16 micrograms/ml or less)

Q: `CC(C)c1cc(CCC[C@H](C)N)cc(-c2cc3cn(-c4ccc([C@H](C)NCCCNC(=N)N)cc4)c(=O)nc3[nH]2)c1F` [Compound 447] was tested. Which “E. coli ATCC25922 MIC” value did it give?
A: + (a “+” indicates that the compound has an MIC value of 16 micrograms/ml or less)

Q: For `N=C(N)NCCCNCc1ccc(-n2cc3cc(-c4cc(CC5CCC(N)CC5)cc(Cl)c4F)[nH]c3nc2=O)cc1` (stereo not shown) [Compound 448], which “E. coli ATCC25922 MIC” value is on record?
A: + (a “+” indicates that the compound has an MIC value of 16 micrograms/ml or less)

Q: With `C[C@H](NCCCNC(=N)N)c1ccc(-n2cc3cc(-c4cc(CC5CCC(N)CC5)cc(Cl)c4F)[nH]c3nc2=O)cc1` (stereo partly shown) [Compound 449] as the compound, how does the “E. coli ATCC25922 MIC” value read?
A: + (a “+” indicates that the compound has an MIC value of 16 micrograms/ml or less)

Q: How did the “E. coli ATCC25922 MIC” value turn out when `N=C(N)NCCCNCc1ccc(-n2cc3cc(-c4cc(C5CCC(CN)CC5)cc(Cl)c4F)[nH]c3nc2=O)cc1` (stereo not shown) [Compound 450] was run?
A: + (a “+” indicates that the compound has an MIC value of 16 micrograms/ml or less)

Q: For `C[C@H](NCCCNC(=N)N)c1ccc(-n2cc3cc(-c4cc(C5CCC(CN)CC5)cc(Cl)c4F)[nH]c3nc2=O)cc1` (stereo partly shown) [Compound 451], which “E. coli ATCC25922 MIC” value is on record?
A: + (a “+” indicates that the compound has an MIC value of 16 micrograms/ml or less)

Q: With `Cc1c(CC(C)C)cc(CCC[C@H](C)N)cc1-c1cc2cn(-c3ccc(CNCCCNC(=N)N)cc3)c(=O)nc2[nH]1` [Compound 452] as the compound, how does the “E. coli ATCC25922 MIC” value read?
A: + (a “+” indicates that the compound has an MIC value of 16 micrograms/ml or less)
